For orientation: IC50 means the midpoint of a concentration-inhibition curve. The term TGI denotes the concentration at which net growth stops. Broadly, the GI50 is the concentration giving 50% growth inhibition.

Series [1] is described as follows: Thermogravimetric (TG) analysis of thermal stability. The class given is physicochemical. The following applies: for TG To (Tonset of thermal degradation): nitrogen, 50 to 350 °C. The procedure:
The thermogravimetric (TG) studies were carried out with a Perkin–Elmer TGA-7 (Perkin Elmer, Inc. Watham, MA, USA) which was calibrated with alumel and nickel at 10 °C·min^−1. The calibration of the oven temperatures was carried out automatically and mass calibrated with a certified sample of 10 mg (ASTM E617, provided by Perkin Elmer, Inc. Watham, MA, USA). TG analyses were performed under a nitrogen atmosphere with a gas flow of 40 mL·min^−1, from 50 to 350 °C, at a heating rate of 10 °C·min^−1, using a sample of approximately 3 mg, in order to obtain the values of the Tonset and Tmax of the degradation process as well as any associated mass loss.

Series [2] in a line: DSC successive melting-recrystallization cycles, polymorphic behaviour. On the set-up: key: I: Compounds that show a polymorphic phase transition into an amorphous or mainly amorphous solid form after a first melting–cooling scan; II: Compounds that change into a new polymorphic form with a different Tonset of fusion than the one observed at the first melting–recrystallization scan after cooling; III: These compounds show a fusion process without modifications in the thermal behaviour after an initial fusion–recrystallization cycle; IV: Compounds that show recrystallization or other types of phase transition of the original form into another crystalline one in the first heat scan; V: Compounds without fusion processes at the range of temperatures studied; *: fusion with decomposition. The class given is physicochemical. The note with it: 10 °C/min. Here is the method:
To establish general polymorphic behaviours, samples of all the compounds synthetized (Figure 1) were exposed to successive cycles of melting–recrystallization using DSC. Calorimetric analyses were performed before the beginning of the degradation process (Table 6). […] This behaviour was shown by several compounds: VA1C, VA2E, VA8E, series H, VA6I, VA8J, VA6M and VA8M. DSC and PXRD results of compound VA7H are shown as supplementary material (Figures S1 and S2 and Table S1). • Behaviour II—Compounds that change into a new polymorphic form with a different Tonset of fusion than the one observed at the first melting–recrystallization scan after cooling. These compounds are VA7E and VA8O. DSC and PXRD results of compound VA7E are shown as supplementary material (Figures S3 and S4, Table S2). • Behaviour III—These compounds show a fusion process without modifications in the thermal behaviour after an initial fusion–recrystallization cycle. Consequently, there is no evidence of polymorphic behaviour. The compounds VA2C, VA2M, VA4J and VA5O belong to this group. DSC and PXRD results of compound VA2M are shown as supplementary material (Figures S5 and S6, Table S3). • Behaviour IV—Compounds that show recrystallization or other types of phase transition of the original form into another crystalline one in the first heat scan. In the successive cycles of melting–recrystallization, the new form may not alter its crystalline form or transit to another polymorphic form. Compounds VA6E, VA7J and VA7M show this behaviour. • Behaviour V—Compounds without fusion processes at the range of temperatures studied.
For calorimetric studies a Perkin–Elmer DSC diamond calibrated with indium and zinc (provided by Perkin–Elmer (Perkin Elmer, Inc. Watham, MA, USA) and fabricated according to guideline ISO35) at 10 °C·min^−1 and nitrogen flow of 20 mL·min^−1 was employed. The gas connected to the equipment was nitrogen with a purity of 99.999%. Calorimetric analyses were carried out in aluminium capsules for volatilities of 10 μL, at a heating rate of 10 °C·min^−1, using a sample of approximately 3 mg, in order to establish the Tonset, Tmax and the enthalpy of fusion ∆Hf.
The calorimetric analyses started with the study of the thermal behaviour of the compounds before the process of degradation in order to evidence the possible existence of polymorphism. For this preliminary study, samples of all the compounds were exposed to successive cycles of heating–cooling. All samples were heated from 50 °C to temperatures 15–20 °C below Tonset of the degradation process, in order to ensure that compounds were not degraded (Table 6). After melting the samples, they were left at room temperature for enough time to allow the compounds to recrystallize before the successive thermal process. Additional cycles of heating–cooling were performed if polymorphism was detected.

Series [3] can be described thus: Stability after stress conditions by HPLC/UV-DAD. The class given is physicochemical. The note with it: 0, 4 and 24 h; for Stability to oxidation: H2O2 3%; for Stability to acid hydrolysis: HCl 1 M; for Stability to basic (alkaline) hydrolysis: NaOH 0.1 M. Here is the method:
The stability of compounds VA4J (without polymorphic behaviour) and VA6E and VA7J (with polymorphic behaviour) was investigated after the application of diverse stress conditions: acid hydrolysis (HCl 1 M), basic hydrolysis (NaOH 0.1 M) and oxidation (H2O2 3%). Chromatographic studies using HPLC/UV-DAD were performed with this purpose.
Chromatographic studies were performed using an HPLC/UV-DAD (HP 1200, Agilent Technologies. Santa Clara, CA, USA) with a C18 column (Gemini-NX 150 × 4.6 mm, 5 µm) from Phenomenex (Phenomenex. Torrance, CA, USA). The mobile phase was a mixture of acetonitrile/water (80:20; v/v) for compound VA4J, (50:50; v/v) for VA6E and (80:20, 0.1% formic acid; v/v) for compound VA7J. The injection volume was 50 µL and the flow rate was 1 mL/min. Chromatography was performed at 35 °C. UV-DAD detection was established at λ = 254 nm.
For stability evaluation in stress conditions, working solutions of 47.6 µg/mL were prepared by diluting 20 µL of each standard solution in 200 µL of acetonitrile and 200 µL of (a) 1 M HCl, (b) 0.1 M NaOH and (c) 3% H2O2. Data were recorded at zero time and after 4 and 24 h of exposure.

Series [4] concerns 1205Lu (melanoma), A549 (lung), DU145 (prostate), HCT116 (colon), PANC-1 (pancreas) and BxPC3 (pancreas). The arrangement: method as in PMID 26922233. The following applies: all six cell lines, even at short time points; MTT conditions slightly different; cited from earlier work.
In series [5] the test system is breast adenocarcinoma (MCF-7) cell line. Kind of series: MTT cell viability assay, 72 h, MCF-7. The class given is cell-based, human. The note with it: for SI (selectivity index): GI50(184B5)/GI50(MCF-7); for TGI / LD50 / GI50: MCF-7, 72 h, MTT; for TGI: concentration that completely inhibits cell growth; for LD50: concentration that kills 50% of cells; for GI50: concentration that inhibits 50% cell growth. Here is the method: (§1) The novel synthetic compounds VA2J, VA4J, VA6G, VA6H, VA6I and VA6J were tested in breast adenocarcinoma (MCF-7) and non-malignant mammary-gland-derived (184B5) cell lines to be able to establish their potency and selectivity. The reference drug used was methylseleninic acid (MSA) as a Se-containing structure with promising in vitro and in vivo results against different tumour types. Results are expressed as the concentration that inhibits 50% cell growth (GI50), the concentration that inhibits completely cell growth (TGI) and the concentration that kills 50% of cells (LD50). The selectivity index (SI) is calculated as GI50(184B5)/GI50(MCF-7).
(§2) Cell lines were purchased from the American Type Culture Collection (ATCC, Barcelona, Spain). MCF7 cell lines were grown in Roswell Park Memorial Institute (RPMI) medium (Gibco, Madrid, Spain) supplemented with 10% fetal bovine serum (FBS; Gibco), 100 units/mL penicillin and […] (Gibco, Madrid, Spain). 184B5 cells were grown in DMEM/F12 medium supplemented with 5% FBS, 1x ITS (Lonza, Barcelona, Spain), 100 nM hydrocortisone (Sigma Aldrich, Madrid, Spain), 2 mM sodium pyruvate (Lonza), 20 ng/mL EGF (Sigma Aldrich, Madrid, Spain), 0.3 nM trans-retinoic acid (Sigma-Aldrich) 100 units/mL penicillin and […]. Cells were maintained at 37 °C and 5% CO2.
(§3) Compounds were dissolved in DMSO at a concentration of 0.01 M. Serial dilutions were prepared with non-supplemented medium. The cytotoxic effect of each compound was tested at eight different concentrations ranging between 0.01 and 100 µM.
(§4) A total of 10^4 cells/well in 96 well-plates were treated with either DMSO or increasing concentrations of the corresponding compound for 72 h and cell viability was determined using the MTT (3-(4,5-dimethylthiazol-2-yl)-2,5-diphenyltetrazolium bromide) (Sigma Aldrich, Madrid, Spain) assay. Briefly, cells were incubated with 50 µL of MTT (2 mg/mL stock) for 4 h. The medium was then removed by aspiration and the formazan crystals were dissolved in 150 µL of DMSO. The absorbance was measured at 550 nm in a microplate reader (Sunrise, Tecan, Männedorf, Switzerland). […] Data were obtained from at least three independent experiments performed in quadruplicate.

The subject of series [6] is non-malignant mammary-gland-derived (184B5) cell line. In words: MTT cell viability assay, 72 h, 184B5. The class given is cell-based. The note with it: 184B5, 72 h; for GI50: Homo sapiens. The procedure: as §1, §2, §3, §4
(Formazan colour is commonly taken as a measure of viable cells.)

`N=C(N)[Se]Cc1nc2ccccc2nc1C[Se]C(=N)N` [VA7J]: in series [1] (10 °C/min), the “TG debromhidration process temperature” value is 173 °C. For the same compound, the “DSC Behaviour (polymorphic/calorimetric behaviour)” value in series [2] is “IV”. Moreover, in series [3], the Stability to oxidation result was “totally degraded”, the “Stability to acid hydrolysis” value is given as “stable” and the “Stability to basic (alkaline) hydrolysis” value is on record as “only a minor degradation”. Further, the IC50 in series [4] was under 10 µM.
For the compound `Cl.N=C(N)Sc1nc2ccccc2nc1S` [VA2J, 3-Mercaptoquinoxalin-2-yl Carbamimidothioate Hydrochloride], in series [5], the “SI (selectivity index)” value is 5.66, the TGI was determined as 13.90 µM and the LD50 was determined as 44.02 µM. In series [6], this compound had an LD50 of 20.48 µM, a TGI of 15.97 µM and a GI50 of 12.5 µM. In series [1] (10 °C/min), the “TG To (Tonset of thermal degradation)” value was determined as 199.2 °C. In series [2], the “DSC Behaviour (polymorphic/calorimetric behaviour)” value was “*”.
As to `N#CSCc1ccc2c(c1)C(=O)c1ccccc1C2=O` [VA6G, (9,10-Dioxo-9,10-dihydroanthracen-2-yl)methyl Thiocyanate], in series [5], the “SI (selectivity index)” value came to 3.99, the TGI came out at 23.95 µM and the LD50 is 67.27 µM. In series [6], this compound displayed an LD50 of 64.84 µM, a TGI of 34.32 µM and a GI50 of 14.3 µM. Besides, the “TG To (Tonset of thermal degradation)” value in series [1] (10 °C/min) is 238.3 °C. Also, the “DSC Behaviour (polymorphic/calorimetric behaviour)” value in series [2] is recorded as “V”.
Take `N#CSCc1ccc2ccccc2n1` [VA6H, Quinolin-2-ylmethyl Thiocyanate]: in series [5], the “SI (selectivity index)” value was 3.25, the TGI is 14.83 µM, the GI50 turned out to be 8.53 µM and the LD50 came to 24.18 µM. In series [5] (Homo sapiens, MCF7, 72 h), this compound displayed a GI50 of under 10 µM. Further, in series [6], the LD50 is over 100 µM, the TGI is 75.84 µM and halving of growth (GI50) required 27.8 µM. The “TG To (Tonset of thermal degradation)” value in series [1] (10 °C/min) was 139.1 °C. For the same compound, the “DSC Behaviour (polymorphic/calorimetric behaviour)” value in series [2] is “I”.
`COc1cc2oc(=O)cc(CSC#N)c2cc1OC` [VA6I, (6,7-Dimethoxy-2-oxo-2H-chromen-4-yl)methyl Thiocyanate]: in series [5], the “SI (selectivity index)” value turned out to be 0.50, the concentration for total growth inhibition (TGI) is over 100 µM and the LD50 was over 100 µM. In series [6], this compound showed an LD50 of over 100 µM, a TGI of over 100 µM and a GI50 of 2.26 µM. Moreover, in series [1] (10 °C/min), the “TG To (Tonset of thermal degradation)” value stood at 246.9 °C. Besides, the “DSC Behaviour (polymorphic/calorimetric behaviour)” value in series [2] is recorded as “I”.
Consider `CSc1nc2ccccc2nc1SC` [VA4J, 2,3-Bis(methylsulfanyl)quinoxaline], for which, in series [5], the “SI (selectivity index)” value was 51.25, the concentration for total growth inhibition (TGI) was over 100 µM and the LD50 is over 100 µM. The “SI relative to MSA” value in series [5] (SI of compound compared with SI of MSA) is “over 50 times”. Besides, in series [6], the LD50 was over 100 µM, the TGI is over 100 µM and it took 52.5 µM to inhibit growth by half (GI50). Moreover, the “TG To (Tonset of thermal degradation)” value in series [1] (10 °C/min) was 197.42 °C. For the same compound, the “TG decomposition or desolvation processes in the temperature range studied” value in series [1] (range 100–135 °C for VA4J, 94–108 °C for VA6E) was “can be excluded”. Also, the “DSC Behaviour (polymorphic/calorimetric behaviour)” value in series [2] is on record as “III”. In addition, in series [3], the Stability to oxidation result is reported as “stable”, the “Stability to acid hydrolysis” value is “stable” and the “Stability to basic (alkaline) hydrolysis” value is listed as “stable”.
In the case of `N#CSCc1nc2ccccc2nc1CSC#N` [VA6J, Quinoxalin-2,3-diyldimethanediyl Bisthiocyanate], in series [5], the “SI (selectivity index)” value was determined as 2.15, the TGI is 50.55 µM and the LD50 is 83.93 µM. This compound displayed a 50% growth inhibitory concentration (GI50) in series [5] (Homo sapiens, MCF7, 72 h) of 18.5 µM. In series [6], this compound returned an LD50 of 94.62 µM, a TGI of 69.80 µM and a concentration for 50% growth inhibition (GI50) of 39.8 µM. The “TG To (Tonset of thermal degradation)” value in series [1] (10 °C/min) stood at 165.0 °C. Also, the “DSC Behaviour (polymorphic/calorimetric behaviour)” value in series [2] is “*”.

Source of the values: publication PMC6152329, “Antitumoural Sulphur and Selenium Heteroaryl Compounds: Thermal Characterization and Stability Evaluation” (Molecules : A Journal of Synthetic Chemistry and Natural …, 2017).
